Measured values published in article PMC5038272, “Glutamate Racemase Is the Primary Target of β-Chloro-D-Alanine in Mycobacterium tuberculosis” (Antimicrobial Agents and Chemotherapy, 2016).

Assays:
alanine racemase (EcAlr) [1] = target: T1, alanine racemase (EcAlr) (Escherichia coli, UniProt P0A6B4); test: partition ratio of inactivation, purified enzyme; assay type: biochemical
T1 construct: gene alr; recombinant EcAlr

alanine racemase (BsAlr) [2] = target: T2, alanine racemase (BsAlr) (Bacillus subtilis, UniProt P10725); test: partition ratio of inactivation, purified enzyme; assay type: biochemical
T2 construct: gene alr1; recombinant BsAlr
T2 sequence (P10725 1-389): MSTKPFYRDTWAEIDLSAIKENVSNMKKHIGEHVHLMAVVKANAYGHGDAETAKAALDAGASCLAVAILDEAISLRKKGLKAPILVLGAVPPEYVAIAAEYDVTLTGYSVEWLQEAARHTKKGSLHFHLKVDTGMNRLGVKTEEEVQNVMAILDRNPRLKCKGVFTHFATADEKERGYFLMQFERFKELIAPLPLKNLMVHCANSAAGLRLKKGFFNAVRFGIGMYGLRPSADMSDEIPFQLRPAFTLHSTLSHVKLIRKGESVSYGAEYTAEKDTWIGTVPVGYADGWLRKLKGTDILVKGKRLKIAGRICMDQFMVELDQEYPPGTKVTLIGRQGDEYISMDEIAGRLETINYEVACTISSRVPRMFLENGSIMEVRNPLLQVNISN

alanine racemase (MtAlr) [3] = target: T3, alanine racemase (MtAlr) (Mycobacterium tuberculosis, UniProt P9WQA9); test: partition ratio of inactivation, purified enzyme; assay type: biochemical
T3 construct: gene alr
T3 sequence (P9WQA9 whole entry): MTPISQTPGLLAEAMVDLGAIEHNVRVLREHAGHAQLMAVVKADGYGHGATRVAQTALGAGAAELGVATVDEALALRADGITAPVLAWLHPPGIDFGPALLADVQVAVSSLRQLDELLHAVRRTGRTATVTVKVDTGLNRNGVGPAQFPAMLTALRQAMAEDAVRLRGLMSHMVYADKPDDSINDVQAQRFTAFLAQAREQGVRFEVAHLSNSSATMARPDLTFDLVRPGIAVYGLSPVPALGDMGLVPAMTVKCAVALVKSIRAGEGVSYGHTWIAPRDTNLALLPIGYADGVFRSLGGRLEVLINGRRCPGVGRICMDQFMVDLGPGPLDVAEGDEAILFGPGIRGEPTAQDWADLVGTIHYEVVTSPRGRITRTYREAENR

alanine racemase (BsAlr) [4] = target: T2, alanine racemase (BsAlr); test: time-dependent inactivation kinetics (kinact/Ki […] ^−[…] s^−[…]), partition ratio, dialysis; assay type: biochemical
alanine racemase (MtAlr) [5] = target: T3, alanine racemase (MtAlr); test: time-dependent inactivation kinetics (poor inactivator, kinact/Ki […] ^−[…] s^−[…]), partition ratio […] dialysis, intact ESI-MS; assay type: biochemical
alanine racemase (EcAlr) [6] = target: T1, alanine racemase (EcAlr); test: time-dependent inactivation kinetics, partition ratio, dialysis, intact ESI-MS; assay type: biochemical
[7] = target: T4, glutamate racemase (BsMurI) (Bacillus subtilis, UniProt P94556); test: time-dependent inactivation kinetics (kinact/Ki), dialysis, intact ESI-MS (+[…]), tryptic LC-MS/MS; assay type: biochemical; details: read-out: time-dependent inactivation kinetics (kinact/Ki), dialysis, intact ESI-MS (+87)
T4 construct: gene racE; recombinant BsMurI
T4 sequence (P94556 whole entry): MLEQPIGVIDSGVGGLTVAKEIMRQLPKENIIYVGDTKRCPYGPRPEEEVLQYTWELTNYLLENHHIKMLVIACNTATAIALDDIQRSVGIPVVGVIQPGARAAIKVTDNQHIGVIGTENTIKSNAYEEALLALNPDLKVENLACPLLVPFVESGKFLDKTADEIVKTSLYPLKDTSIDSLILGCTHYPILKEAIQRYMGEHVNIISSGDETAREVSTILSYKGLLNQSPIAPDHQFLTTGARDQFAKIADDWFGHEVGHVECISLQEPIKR

[8] = target: T4, glutamate racemase (BsMurI); test: intact ESI-MS covalent adduct and tryptic LC-MS/MS; assay type: binding

T1 sequence (P0A6B4 whole entry): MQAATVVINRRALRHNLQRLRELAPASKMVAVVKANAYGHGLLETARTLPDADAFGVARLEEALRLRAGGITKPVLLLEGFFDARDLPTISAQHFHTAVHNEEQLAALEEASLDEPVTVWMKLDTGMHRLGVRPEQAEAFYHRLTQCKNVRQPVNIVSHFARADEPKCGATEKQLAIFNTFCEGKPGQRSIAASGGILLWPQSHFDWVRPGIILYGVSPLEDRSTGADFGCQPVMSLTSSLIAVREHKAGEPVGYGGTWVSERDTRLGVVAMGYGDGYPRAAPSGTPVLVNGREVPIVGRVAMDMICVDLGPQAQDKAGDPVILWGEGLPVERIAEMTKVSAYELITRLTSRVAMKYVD

CC(=O)OC[C@@H](N)C(=O)O [OADS, O-acetyl–D-serine]
partition ratio of inactivation, purified enzyme (alanine racemase (EcAlr) [1]): partition ratios were compared for the structurally and mechanistically similar Alr inhibitor O-acetyl–D-serine (OADS)
partition ratio of inactivation, purified enzyme (alanine racemase (BsAlr) [2]): partition ratios were compared for the structurally and mechanistically similar Alr inhibitor O-acetyl–D-serine (OADS)
partition ratio of inactivation, purified enzyme (alanine racemase (MtAlr) [3]): partition ratios were compared for the structurally and mechanistically similar Alr inhibitor O-acetyl–D-serine (OADS)

N[C@H](CCl)C(=O)O [BCDA, β-chloro-D-alanine]
KI (inactivation) (alanine racemase (BsAlr) [4]): 130 to 230 µM
KI (inactivation) (alanine racemase (MtAlr) [5]): 130 to 230 µM
KI (inactivation) (alanine racemase (EcAlr) [6]): 130 to 230 µM
kinact/KI [7]: 2.7 M⁻¹ s⁻¹

N[C@@H](CCl)C(=O)O [BCLA, β-chloro-L-alanine]
intact ESI-MS covalent adduct and tryptic LC-MS/MS [8]: BCLA modified BsMurI predominantly at C74, the cysteine residue responsible for deprotonation of an incoming D-Glu substrate
